Source: patent US8937068B2, “Pyridopyrazine derivatives and their use” (Zentaris GmbH, priority 2005, dated 2015)

Legend:
[1] = tested on: Jnk1 + Jnk2; experiment: Cell-free kinase assay (ALPHA technology), Jnk1 + Jnk2; type: biochemical, human; conditions: 10 μM ATP
Method in brief: (§1)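 Recombinant human GST- or His-tagged kinases were assayed for 1 h with ALPHA bead detection read after overnight standing. For PI3Kalpha: 1 ng enzyme, 100 μM ATP, 20 μM PIP2 in Hepes pH 7.4, detected by GST:Grp1/biotin-PIP3 competition. The p38alpha and Jnk assays followed the MAPK format (10 μM ATP, biotin-MBP, anti-phospho-MBP); IC50 from %-inhibition.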

[2] = tested on: MDA-MB468; experiment: XTT assay, anti-proliferative effect, MDA-MB468; type: cell-based; conditions: 45 h incubation
Procedure: (§2) The principle of this test is based on the intracellular reduction of the tetrazolium dye XTT (sodium 3′-[1-(phenylaminocarbonyl)-3,4-tetrazolium]-bis(4-methoxy-6-nitro)benzene sulfonic acid, Sigma) to a formazan dye by mitochondrial dehydrogenases. The dye is only formed by metabolically active cells and its photometrically measurable intensity is a quantitative indicator for the presence of living cells. The reduction of dye formation by incubation of the cells with substances serves as a parameter for the anti-proliferative effect.
(§3) The tumour cell lines (ATCC) were injected into 96-well microtitre plates in a defined cell number (5000 cells/well for BxPC3 and Hct116; 10000 cells/well for MDA MB468) and then incubated overnight in an incubator at 37° C., 5% CO2 and 95% air humidity. The test substances were prepared as stock solutions (10 mM) in DMSO. […] The cell plates were then incubated for 45 h in an incubator at 37° C., 5% CO2 and 95% air humidity.
(§4) For the detection reaction the substrate XTT was mixed with PMS (N-Methyl dibenzopyrazine methylsulfate, Sigma) and added to the cells so that a final concentration of 325 μg XTT/ml and 2.5 μg PMS/ml was obtained. It was then incubated for 3 h at 37° C., 95% air humidity. The formazan salt formed by the cellular dehydrogenases could then be quantified by adsorption at 490 nm.
(§5) The % inhibition value was evaluated by means of the following formula from the values for the optical densities measured in each case at 490 nm:
(§6) Eight determinations were made for each control and two for the substance samples. The 0% control contains no cells, the 100% control (proliferation control) contains no test substance. The EC50 values were determined using GraphPadPrism.

[3] = molecular target: Erk2 (Homo sapiens, UniProt P28482); experiment: Cell-free kinase assay (ALPHA technology), Erk2; type: biochemical; conditions: 10 μM ATP
Method in brief: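 Recombinant tagged Erk2 kinase reactions were stopped with ALPHA bead mix […]. The signal was read after standing overnight. Controls were run in eight replicates and compounds in duplicate, and IC50 was fitted.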

[4] = molecular target: p38alpha (Homo sapiens (Human), UniProt Q16539); experiment: Cell-free kinase assay (ALPHA technology), p38alpha; type: biochemical; conditions: 10 μM ATP
[5] = tested on: Hct116; experiment: XTT assay, anti-proliferative effect, Hct116; type: cell-based; conditions: 45 h incubation
Procedure: as §2, §3, §4, §5, §6

[6] = molecular target: PI3Kalpha (Homo sapiens (Human), UniProt P42336); experiment: Cell-free kinase assay (ALPHA technology), PI3Kalpha; type: biochemical; conditions: 100 μM ATP
Method in brief: as §1

Chain of PI3Kalpha (P42336 whole entry): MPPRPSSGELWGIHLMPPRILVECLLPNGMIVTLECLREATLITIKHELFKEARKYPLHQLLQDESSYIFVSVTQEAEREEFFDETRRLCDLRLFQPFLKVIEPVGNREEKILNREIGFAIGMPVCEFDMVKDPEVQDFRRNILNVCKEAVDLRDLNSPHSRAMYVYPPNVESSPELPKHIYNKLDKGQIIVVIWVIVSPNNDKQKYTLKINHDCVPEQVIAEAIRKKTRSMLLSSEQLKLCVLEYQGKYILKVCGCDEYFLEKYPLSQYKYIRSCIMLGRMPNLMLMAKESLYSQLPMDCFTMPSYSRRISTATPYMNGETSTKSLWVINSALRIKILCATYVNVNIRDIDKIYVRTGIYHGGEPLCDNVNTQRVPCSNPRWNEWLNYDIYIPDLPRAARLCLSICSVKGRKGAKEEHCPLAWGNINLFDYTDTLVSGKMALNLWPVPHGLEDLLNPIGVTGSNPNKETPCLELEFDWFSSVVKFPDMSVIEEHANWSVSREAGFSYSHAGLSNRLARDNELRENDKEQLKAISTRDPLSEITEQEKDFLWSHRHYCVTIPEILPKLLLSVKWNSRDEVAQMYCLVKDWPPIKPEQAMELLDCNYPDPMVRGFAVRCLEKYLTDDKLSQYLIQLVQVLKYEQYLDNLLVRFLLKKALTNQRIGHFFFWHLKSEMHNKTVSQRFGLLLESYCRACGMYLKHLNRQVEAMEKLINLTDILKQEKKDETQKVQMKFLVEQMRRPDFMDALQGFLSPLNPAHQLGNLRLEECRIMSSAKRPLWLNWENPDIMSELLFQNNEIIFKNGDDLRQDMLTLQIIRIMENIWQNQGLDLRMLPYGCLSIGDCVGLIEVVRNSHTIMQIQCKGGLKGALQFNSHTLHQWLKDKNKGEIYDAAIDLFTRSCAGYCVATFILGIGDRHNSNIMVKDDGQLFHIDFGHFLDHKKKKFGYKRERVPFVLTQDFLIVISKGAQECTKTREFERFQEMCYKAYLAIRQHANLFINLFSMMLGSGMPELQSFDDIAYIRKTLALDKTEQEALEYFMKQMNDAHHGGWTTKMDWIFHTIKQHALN
Chain of PI3Kalpha (P27986 whole entry partner): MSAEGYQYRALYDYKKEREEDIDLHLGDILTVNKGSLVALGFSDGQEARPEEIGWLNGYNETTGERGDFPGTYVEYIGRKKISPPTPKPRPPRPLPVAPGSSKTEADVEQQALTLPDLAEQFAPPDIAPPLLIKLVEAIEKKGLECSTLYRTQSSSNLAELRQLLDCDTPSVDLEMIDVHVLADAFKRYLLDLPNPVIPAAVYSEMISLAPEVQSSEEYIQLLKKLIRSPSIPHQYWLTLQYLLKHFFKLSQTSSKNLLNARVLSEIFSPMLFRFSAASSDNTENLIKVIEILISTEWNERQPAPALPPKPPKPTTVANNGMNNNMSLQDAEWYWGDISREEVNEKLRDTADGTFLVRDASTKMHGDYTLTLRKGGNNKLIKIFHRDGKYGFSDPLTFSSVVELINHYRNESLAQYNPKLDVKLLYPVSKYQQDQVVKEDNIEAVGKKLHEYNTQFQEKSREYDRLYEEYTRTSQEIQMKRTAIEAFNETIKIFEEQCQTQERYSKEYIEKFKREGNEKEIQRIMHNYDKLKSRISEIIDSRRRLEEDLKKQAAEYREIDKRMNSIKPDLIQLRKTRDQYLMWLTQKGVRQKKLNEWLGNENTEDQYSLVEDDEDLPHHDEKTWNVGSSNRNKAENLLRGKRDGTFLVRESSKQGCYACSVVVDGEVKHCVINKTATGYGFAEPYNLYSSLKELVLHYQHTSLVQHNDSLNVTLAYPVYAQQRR
Chain of Erk2 (P28482 2-360 limits assumed): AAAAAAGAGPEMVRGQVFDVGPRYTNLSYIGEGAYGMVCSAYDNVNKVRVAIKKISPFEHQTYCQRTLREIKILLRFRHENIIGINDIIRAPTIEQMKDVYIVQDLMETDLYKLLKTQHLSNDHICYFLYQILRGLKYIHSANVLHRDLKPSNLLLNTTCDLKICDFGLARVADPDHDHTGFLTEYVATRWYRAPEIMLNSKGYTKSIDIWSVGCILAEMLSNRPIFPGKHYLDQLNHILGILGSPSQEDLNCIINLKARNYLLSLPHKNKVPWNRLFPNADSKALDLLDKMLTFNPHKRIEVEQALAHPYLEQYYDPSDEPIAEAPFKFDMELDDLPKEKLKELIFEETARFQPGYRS
Chain of p38alpha (Q16539 whole entry): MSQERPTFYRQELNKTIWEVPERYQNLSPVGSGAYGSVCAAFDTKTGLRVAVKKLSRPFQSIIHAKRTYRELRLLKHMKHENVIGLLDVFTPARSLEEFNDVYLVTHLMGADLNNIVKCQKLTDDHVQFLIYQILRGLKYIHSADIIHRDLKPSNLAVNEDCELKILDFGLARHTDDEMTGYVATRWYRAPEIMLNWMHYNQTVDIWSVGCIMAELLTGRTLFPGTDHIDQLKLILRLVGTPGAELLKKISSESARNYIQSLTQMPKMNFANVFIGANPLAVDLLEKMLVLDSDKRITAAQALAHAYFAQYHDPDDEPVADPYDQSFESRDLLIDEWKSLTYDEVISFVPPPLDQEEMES

| Compound | IC50 [1] [µM] | EC50 ([2]; Homo sapiens, MDA-MB-468) [µM] | IC50 [3] [µM] | IC50 [4] [µM] | EC50 ([5]; Homo sapiens, HCT-116) [µM] | IC50 [6] [µM] | EC50 [2] [µM] | EC50 [5] [µM] |
| --- | --- | --- | --- | --- | --- | --- | --- | --- |
| O=C(NCCCCO)Nc1ccc2ncc(-c3ccccc3)nc2n1 [Compound 146, 1-(4-Hydroxy-butyl)-3-(3-phenyl-pyrido[2,3-b]pyrazin-6-yl)-urea] | 3.3 | ~20 | 0.155 | > 100 | 9.3 | 1.1 | – | – |
| CCNC(=O)Nc1ccc2ncc(-c3ccc(O)c(OC)c3)nc2n1 [Compound 124, 1-Ethyl-3-[3-(4-hydroxy-3-methoxy-phenyl)-pyrido[2,3-b]pyrazin-6-yl]-urea] | 1 | 10 | 0.062 | > 100 | 1.5 | 0.49 | – | – |
| CCNC(=O)Nc1ccc2ncc(-c3ccc(O)c(OC)c3)nc2n1.Cc1ccc(S(=O)(=O)O)cc1 [Compound 183, 1-Ethyl-3-[3-(4-hydroxy-3-methoxy-phenyl)-pyrido[2,3-b]pyrazin-6-yl]-urea p-Toluolsulfonate] | 4.7 | – | 0.203 | > 100 | – | 2.8 | 4.3 | 2.1 |
| CCNC(=O)Nc1ccc2ncc(-c3cnn(C)c3)nc2n1 [Compound 173, 1-Ethyl-3-[3-(1-methyl-1H-pyrazol-4-yl)-pyrido[2,3-b]pyrazin-6-yl]-urea] | 2.9 | > 25 | 0.107 | > 100 | 9 | 2.4 | – | – |
| C=CCNC(=S)Nc1ccc2ncc(-c3ccc(O)cc3)nc2n1 [Compound 30, 1-allyl-3-[3-(4-hydroxy-phenyl)-pyrido[2,3-b]pyrazin-6-yl]-thiourea] | 21.8 | 4 | 0.392 | > 100 | 6 | 0.37 | – | – |
| CCNC(=O)Nc1ccc2ncc(Nc3ccc(C)cc3)nc2n1 [Compound 150, 1-Ethyl-3-(3-p-tolylamino-pyrido[2,3-b]pyrazin-6-yl)-urea] | > 100 | 4.3 | 18.7 | 18.1 | 2.3 | 0.129 | – | – |
